According to US10774071B2, “PD-1/PD-L1 inhibitors” (Gilead Sciences, Inc., priority 2018, dated 2020):
Where two headings read alike, the source gives them in different places.

Legend:
PD-1/PD-L1 = PD-1/PD-L1 (Homo sapiens (Human), UniProt Q9NZQ7); assay: PD-1/PD-L1 biochemical protein-protein interaction assay (ALPHA); type: binding; settings: read-out: IC50 PD-L1-PD1
PD-L1 = PD-L1 (Homo sapiens (Human), UniProt Q9NZQ7); assay: PD-L1/PD-L1 dimerization biochemical protein-protein interaction assay (ALPHA); type: binding; settings: read-out: AC50 PDL1 Dimer 1 nM
[1] = 0.3 nM His tagged PD-L1, 2.5 nM biotinylated Fc-PD-1, Table 3B
[2] = 0.5 nM His tagged PD-L1 and 0.5 nM FLAG tagged PD-L1, Table 4B
[3] = 0.3 nM His tagged PD-L1, 2.5 nM biotinylated Fc-PD-1, readings of 0.064 nM are equal to or less than 0.064 nM
[4] = 0.5 nM His tagged PD-L1 and 0.5 nM FLAG tagged PD-L1, Table 4A

Chain of PD-L1 (Q9NZQ7 19-238): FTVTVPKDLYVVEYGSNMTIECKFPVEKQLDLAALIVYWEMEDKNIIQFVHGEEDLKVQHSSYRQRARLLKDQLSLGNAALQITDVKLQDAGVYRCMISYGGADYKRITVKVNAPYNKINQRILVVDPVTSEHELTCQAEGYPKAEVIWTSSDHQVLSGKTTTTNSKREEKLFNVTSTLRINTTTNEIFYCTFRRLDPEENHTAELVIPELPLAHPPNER
Chain of PD-L1 (Q9NZQ7 19-238): as above
Chain of PD-1/PD-L1 (Q9NZQ7 19-238): as above

Compound: COc1nc(-c2cccc(-c3cccc4c3CC[C@@H]4Oc3nc(OC)c(CN[C@]4(C(=O)O)C[C@H](F)C4)cc3C(F)(F)F)c2Cl)ccc1CNC[C@@H]1CCC(=O)N1 [B-230]
- IC50 (PD-1/PD-L1; [1]): 0.064 nM
- AC50 (PD-L1; [2]): 27.5 nM

Compound: CNC(=O)C1CN(Cc2cc(Cl)c(O[C@H]3CCc4c(-c5cccc(-c6ccc(CNC[C@@H]7CCC(=O)N7)c(OC)n6)c5Cl)cccc43)nc2OC)C1 [B-101]
- IC50 (PD-1/PD-L1; [1]): 0.201 nM
- AC50 (PD-L1; [2]): 64.8 nM

Compound: COc1cc(O[C@H]2CCc3c(-c4cccc(-c5ccc(CNC[C@@H]6CCC(=O)N6)c(OC)n5)c4Cl)cccc32)c(C(F)(F)F)cc1CNC[C@@H](O)CC(=O)O [B-222]
- IC50 (PD-1/PD-L1; [1]): 0.064 nM
- AC50 (PD-L1; [2]): 13.5 nM

Compound: COc1cc(-c2cccc(-c3cccc4c3CC[C@@H]4Oc3nc(OC)c(CN4CC[C@@H](C(=O)O)C4)cc3C(F)(F)F)c2Cl)cc(F)c1CNC[C@@H]1CCC(=O)N1 [B-195]
- IC50 (PD-1/PD-L1; [1]): 0.064 nM
- AC50 (PD-L1; [2]): 5.79 nM

Compound: COc1nc(-c2cccc(-c3cccc4c3CC[C@@H]4Oc3nc(OC)c(CN4CC5(C(=O)O)CCC4CC5)cc3C(F)(F)F)c2Cl)ccc1CN[C@H]1C[C@](C)(O)C1 [B-4]
- IC50 (PD-1/PD-L1; [1]): 0.064 nM
- AC50 (PD-L1; [2]): 20.9 nM

Compound: COc1nc(-c2cccc(-c3cccc4c3CC[C@@H]4Nc3nc(OC)c(CN[C@H](C(=O)O)C4CC4)nc3C(F)(F)F)c2Cl)ccc1CN[C@H]1C[C@](C)(O)C1 [A-94]
- IC50 (PD-1/PD-L1; [3]): ≤ 0.064 nM
- AC50 (PD-L1; [4]): 20.7 nM

Compound: COc1nc(-c2cccc(-c3cccc4c3CC[C@@H]4Oc3nc(OCc4cc(Cl)cc(C#N)c4)c(CN4CC5(C(=O)O)CCC4CC5)cc3Cl)c2Cl)ccc1CNC[C@@H]1CCC(=O)N1 [B-31]
- IC50 (PD-1/PD-L1; [1]): 0.085 nM
- AC50 (PD-L1; [2]): 32.3 nM

Compound: COc1nc(-c2cccc(-c3cccc4c3CC[C@@H]4Nc3nc(OC)c(CN[C@@H](C)C(N)=O)nc3C(F)(F)F)c2Cl)ccc1CNC[C@@H]1CCC(=O)N1 [A-102]
- IC50 (PD-1/PD-L1; [3]): ≤ 0.064 nM
- AC50 (PD-L1; [4]): 43.1 nM

Compound: COc1nc(O[C@H]2CCc3c(-c4cccc(-c5cc(C)c(CN6CC(C(=O)O)C7(CC7)C6)c(OC)n5)c4Cl)cccc32)c(Cl)cc1CNC[C@@H]1CCC(=O)N1 (stereo partly drawn) [B-123]
- IC50 (PD-1/PD-L1; [1]): 0.064 nM
- AC50 (PD-L1; [2]): 133 nM

Compound: COc1nc(-c2cccc(-c3cccc4c3CC[C@@H]4Nc3nc(OC)c(CN[C@@H](C)C(=O)O)nc3C(F)(F)F)c2Cl)ccc1CNC[C@H]1C[C@](C)(O)C1 [A-86]
- IC50 (PD-1/PD-L1; [3]): ≤ 0.064 nM
- AC50 (PD-L1; [4]): 29.2 nM

Compound: COc1nc(-c2cccc(-c3cccc4c3CC[C@@H]4Oc3nc(OC)c(CN4CC5(C(=O)O)CCC4CC5)cc3Cl)c2Cl)ccc1CN[C@@H]1CCC[C@@H]1O [B-52]
- IC50 (PD-1/PD-L1; [1]): 0.095 nM
- AC50 (PD-L1; [2]): 46.4 nM

Compound: CCC1C(C(=O)O)CCN1Cc1cc(Cl)c(O[C@H]2CCc3c(-c4cccc(-c5ccc(CNC[C@@H]6CCC(=O)N6)c(OC)n5)c4Cl)cccc32)nc1OC (stereo partly drawn) [B-186]
- IC50 (PD-1/PD-L1; [1]): 0.064 nM
- AC50 (PD-L1; [2]): 19.7 nM

Compound: COc1nc(-c2cccc(-c3cccc4c3CC[C@@H]4Nc3nc(OC)c(CNCC(=O)O)nc3C(F)(F)F)c2Cl)ccc1CNC[C@H]1C[C@](C)(O)C1 [A-87]
- IC50 (PD-1/PD-L1; [3]): ≤ 0.064 nM
- AC50 (PD-L1; [4]): 22.3 nM

Compound: COc1nc(O[C@H]2CCc3c(-c4cccc(-c5cnc(CNC[C@@H]6CCC(=O)N6)c(OC)n5)c4C#N)cccc32)c(Cl)cc1CN1CC[C@@H](C(=O)O)C1 [B-69]
- IC50 (PD-1/PD-L1; [1]): 0.064 nM
- AC50 (PD-L1; [2]): 156 nM

Compound: COC[C@H](NCc1cc(C(F)(F)F)c(N[C@H]2CCc3c(-c4cccc(-c5ccc(CN[C@H]6C[C@](C)(O)C6)c(OC)n5)c4Cl)cccc32)nc1OC)C(=O)O [A-91]
- IC50 (PD-1/PD-L1; [3]): ≤ 0.064 nM
- AC50 (PD-L1; [4]): 42.7 nM

Compound: COc1nc(-c2cccc(-c3cccc4c3CC[C@@H]4Oc3nc(OC)c(CN4CC[C@@H](C(=O)O)C4)nc3C)c2Cl)ccc1CNC[C@@H]1CCC(=O)N1 [B-150]
- IC50 (PD-1/PD-L1; [1]): 0.064 nM
- AC50 (PD-L1; [2]): 65.1 nM

Compound: COc1nc(-c2cccc(-c3cccc4c3CC[C@@H]4Oc3nc(OC)c(CN4CC(C(=O)O)C4C)cc3Cl)c2Cl)ccc1CNC[C@@H]1CCC(=O)N1 (stereo partly drawn) [B-9]
- IC50 (PD-1/PD-L1; [1]): 0.064 nM
- AC50 (PD-L1; [2]): 19.2 nM

Compound: COc1nc(-c2cccc(-c3cccc4c3CC[C@@H]4Oc3nc(OC)c(CN4CCCC[C@@]4(C)C(=O)O)cc3C(F)(F)F)c2Cl)ccc1CNC[C@@H]1CCC(=O)N1 [B-135]
- IC50 (PD-1/PD-L1; [1]): 0.064 nM
- AC50 (PD-L1; [2]): 2.76 nM

Compound: COc1nc(-c2cccc(-c3cccc4c3CC[C@@H]4Nc3nc(OC)c(CN4CC[C@@](C)(C(=O)O)C4)nc3C(F)(F)F)c2Cl)ccc1CN1CC(C)(O)C1 [A-68]
- IC50 (PD-1/PD-L1; [3]): ≤ 0.064 nM
- AC50 (PD-L1; [4]): 83.7 nM

Compound: COc1nc(-c2cccc(-c3cccc4c3CC[C@@H]4Oc3nc(OC)c(CN4CC5(CC5)C[C@H]4C(=O)O)cc3C(F)(F)F)c2Cl)ccc1CNC[C@@H]1CCC(=O)N1 [B-144]
- IC50 (PD-1/PD-L1; [1]): 0.064 nM
- AC50 (PD-L1; [2]): 8.98 nM

Compound: COc1cc(N[C@H]2CCc3c(-c4cccc(-c5ccc(CNC[C@@H]6CCC(=O)N6)c(OC)n5)c4Cl)cccc32)c(C(F)(F)F)cc1CN1CC[C@@H](C(=O)O)C1 [A-11]
- IC50 (PD-1/PD-L1; [3]): ≤ 0.064 nM
- AC50 (PD-L1; [4]): 34.8 nM

Compound: COc1nc(-c2cccc(-c3cccc4c3CC[C@@H]4Nc3nc(OC)c(CNCC(=O)O)nc3C(F)(F)F)c2Cl)ccc1CN1CC(C)(O)C1 [A-75]
- IC50 (PD-1/PD-L1; [3]): ≤ 0.064 nM
- AC50 (PD-L1; [4]): 18.1 nM

Compound: COc1nc(-c2cccc(-c3cccc4c3CC[C@@H]4Oc3nc(OC)c(CN[C@@H](C)C(=O)O)cc3C(F)(F)F)c2Cl)ccc1CNC[C@@H]1CCC(=O)N1 [B-271]
- IC50 (PD-1/PD-L1; [1]): 0.064 nM
- AC50 (PD-L1; [2]): 1.91 nM

Compound: COc1nc(-c2cccc(-c3cccc4c3CC[C@@H]4Oc3nc(OC)c(CN4CCC[C@@]4(C)C(=O)O)cc3C(F)(F)F)c2Cl)ccc1CNC[C@@H]1CCC(=O)N1 [B-13]
- IC50 (PD-1/PD-L1; [1]): 0.064 nM
- AC50 (PD-L1; [2]): 3.92 nM

Compound: COC[C@H](NCc1nc(C(F)(F)F)c(N[C@H]2CCc3c(-c4cccc(-c5ccc(CNC[C@@H]6CCC(=O)N6)c(OC)n5)c4Cl)cccc32)nc1OC)C(=O)O [A-100]
- IC50 (PD-1/PD-L1; [3]): ≤ 0.064 nM
- AC50 (PD-L1; [4]): 7.11 nM

Compound: COc1nc(-c2cccc(-c3cccc4c3CC[C@@H]4Oc3nc(OC)c(CN4CC5(C(=O)O)CCC4CC5)cc3C(F)(F)F)c2Cl)ccc1CNC[C@@H]1CC(O)C(=O)N1 (stereo partly drawn) [B-203]
- IC50 (PD-1/PD-L1; [1]): 0.064 nM
- AC50 (PD-L1; [2]): 5.21 nM

Compound: COc1nc(-c2cccc(-c3cccc4c3CC[C@@H]4Oc3nc(OC)c(CN4CC[C@@H](C(=O)O)C4)cc3C(F)(F)F)c2Cl)ccc1CNC[C@@H]1CCC(=O)N1 [B-62]
- IC50 (PD-1/PD-L1; [1]): 0.064 nM
- AC50 (PD-L1; [2]): 9.3 nM

Compound: COc1nc(-c2cccc(-c3cccc4c3CC[C@@H]4Oc3nc(OC)c(CN[C@H](C(=O)O)C4CC4)cc3C(F)(F)F)c2Cl)ccc1CNC[C@@H]1CCC(=O)N1 [B-268]
- IC50 (PD-1/PD-L1; [1]): 0.064 nM
- AC50 (PD-L1; [2]): 3.76 nM

Compound: COc1cc(-c2cccc(-c3cccc4c3CC[C@@H]4Nc3nc(OC)c(CNC4(C(=O)O)CC4)nc3C(F)(F)F)c2Cl)cc(F)c1CNC[C@@H]1CCC(=O)N1 [A-32]
- IC50 (PD-1/PD-L1; [3]): ≤ 0.064 nM
- AC50 (PD-L1; [4]): 12.5 nM

Compound: COc1nc(-c2cccc(-c3cccc4c3CC[C@@H]4Oc3nc(OC)c(CNCC(=O)O)cc3C(F)(F)F)c2Cl)ccc1CN[C@]1(C)C[C@@](C)(O)C1 [B-205]
- IC50 (PD-1/PD-L1; [1]): 0.064 nM
- AC50 (PD-L1; [2]): 7.55 nM

Compound: COc1nc(-c2cccc(-c3cccc4c3CC[C@@H]4Oc3nc(OC)c(CN4CCN(C)C(C(=O)O)C4)cc3Cl)c2Cl)ccc1CNC[C@@H]1CCC(=O)N1 (stereo partly drawn) [B-82]
- IC50 (PD-1/PD-L1; [1]): 0.064 nM
- AC50 (PD-L1; [2]): 37.8 nM

Compound: COc1nc(-c2cccc(-c3cccc4c3CC[C@@H]4Oc3nc(OC)c(CN4CC5(C(=O)O)CCC4CC5)cc3Cl)c2C#N)ccc1CNC[C@@H]1CCC(=O)N1 [B-68]
- IC50 (PD-1/PD-L1; [1]): 0.064 nM
- AC50 (PD-L1; [2]): 48 nM

Compound: COc1nc(-c2cccc(-c3cccc4c3CC[C@@H]4Oc3nc(OC)c(CNCC(C)(C)C(=O)O)cc3C(F)(F)F)c2Cl)ccc1CN[C@H]1C[C@](C)(O)C1 [B-252]
- IC50 (PD-1/PD-L1; [1]): 0.064 nM
- AC50 (PD-L1; [2]): 18 nM

Compound: COc1nc(-c2cccc(-c3cccc4c3CC[C@@H]4Nc3nc(OC)c(CN[C@@H](C)C(=O)O)nc3C(F)(F)F)c2Cl)ccc1CN1CC(C)(O)C1 [A-74]
- IC50 (PD-1/PD-L1; [3]): ≤ 0.064 nM
- AC50 (PD-L1; [4]): 9.07 nM

Compound: COc1nc(O[C@H]2CCc3c(-c4cccc(-c5cnc(CNC[C@@H]6CCC(=O)N6)c(OC)n5)c4Cl)cccc32)c(Cl)cc1CN1CC(C(=O)O)C1 [B-43]
- IC50 (PD-1/PD-L1; [1]): 0.064 nM
- AC50 (PD-L1; [2]): 44.3 nM

Compound: COc1nc(-c2cccc(-c3cccc4c3CC[C@@H]4Oc3nc(OC)c(CN4C[C@@H](C)[C@H](C(=O)O)C4)cc3Cl)c2Cl)ccc1CNC[C@@H]1CCC(=O)N1 [B-107]
- IC50 (PD-1/PD-L1; [1]): 0.064 nM
- AC50 (PD-L1; [2]): 20.1 nM

Compound: COc1nc(-c2cccc(-c3cccc4c3CC[C@@H]4Oc3nc(OC)c(CN4CC(C(=O)O)C4)nc3C)c2Cl)ccc1CNC[C@@H]1CCC(=O)N1 [B-148]
- IC50 (PD-1/PD-L1; [1]): 0.064 nM
- AC50 (PD-L1; [2]): 43.2 nM

Compound: COc1nc(-c2cccc(-c3cccc4c3CC[C@@H]4Oc3nc(OC)c(CN4CC[C@@](C)(C(=O)O)C4)cc3C(F)(F)F)c2Cl)ccc1CNC[C@@H]1CC(O)C(=O)N1 (stereo partly drawn) [B-202]
- IC50 (PD-1/PD-L1; [1]): 0.064 nM
- AC50 (PD-L1; [2]): 3.43 nM

Compound: COc1cc(O[C@H]2CCc3c(-c4cccc(-c5ccc(CNC[C@@H]6CCC(=O)N6)c(OC)n5)c4Cl)cccc32)c(C(F)(F)F)cc1CNCC(C)(C)C(=O)O [B-221]
- IC50 (PD-1/PD-L1; [1]): 0.064 nM
- AC50 (PD-L1; [2]): 17.5 nM
